Structures can show the parent of a compound that is named as a salt.
Target: T1, protein farnesyltransferase (Rattus norvegicus, UniProt Q02293+Q04631)
T1 construct: Rat brain protein farnesyltransferase activity is measured; from tissue; host or cells: rat brain; purified according to Reiss et al., Cell 62:81-88 (1990), steps one through three
Assay: in vitro inhibition of protein farnesyltransferase (scintillation proximity assay, biotin-K Ras B fragment)
Assay type: biochemical
Conditions: for inhibition at 1 µM / inhibition at 0.1 µM: read-out: % inhibition of farnesyltransferase
Summary of the method: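 Scintillation proximity read-out of farnesylation, using a biotinylated K Ras B fragment (0.1 mM final) in place of biotin-lamin. Enzyme purified from rat brain; results given as % inhibition.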

| % inhibition of farnesyltransferase (at 1 × 10^-6 M) | SMILES | % inhibition of farnesyltransferase (at 1 × 10^-7 M) | other results |
| --- | --- | --- | --- |
| – | CSCC[C@H](NC(=O)c1ccc(COCCc2ccc(-c3ccc(F)cc3)o2)cc1-c1ccccc1C)C(=O)[O-].[Li+] [Example 535] | 89% | – |
| – | CSCC[C@H](NC(=O)c1ccc(COCCc2ccc(-c3ccc(Cl)cc3)o2)cc1-c1ccccc1C)C(=O)[O-].[Li+] [Example 536] | 79% | – |
| – | CSCC[C@H](NC(=O)c1ccc(COCc2cncs2)cc1-c1ccccc1C)C(=O)[O-].[Li+] [Example 539] | 89% | – |
| – | CSCC[C@H](NC(=O)c1ccc(NC(=O)Cc2ccccc2)cc1-c1ccccc1C)C(=O)O [Example 540, N-[4-N-phenylacetylamino-2-(2-methylphenyl)benzoyl]methionine lithium salt] | – | inhibition at 1 µM (at 1 × 10^-6 M): 40% |
| – | CSCC[C@H](NC(=O)c1ccc(NC(=O)Cc2ccc(C)cc2)cc1-c1ccccc1C)C(=O)O [Example 541, N-[4-N-(4'-methylphenylacetyl)amino-2-(2-methylphenyl)benzoyl]methionine lithium salt] | – | inhibition at 1 µM (at 1 × 10^-6 M): 37% |
| – | COc1ccc(CC(=O)Nc2ccc(C(=O)N[C@@H](CCSC)C(=O)O)c(-c3ccccc3C)c2)cc1 [Example 542, N-[4-N-(4'-methoxyphenylacetyl)amino-2-(2-methylphenyl)benzoyl]methionine lithium salt] | – | inhibition at 1 µM (at 1 × 10^-6 M): 67% |
| – | COc1ccccc1CCC(=O)Nc1ccc(C(=O)N[C@@H](CCSC)C(=O)O)c(-c2ccccc2C)c1 [Example 544, N-[4-N-(3-(2-methoxyphenyl)propionoyl)amino-2-(2-methylphenyl)benzoyl]methionine lithium salt] | – | inhibition at 1 µM (at 1 × 10^-6 M): 35% |
| 88% | CSCC[C@H](NC(=O)c1ccc(CS[C@H](CO)Cc2ccccc2)cc1-c1ccccc1)C(=O)O [Example 545] | – | – |
| 97% | CSCC[C@H](NC(=O)c1ccc(OC/C=C(\C)CCC=C(C)C)cc1-c1ccccc1C)C(=O)O [Example 546] | – | – |
| 91% | CSCC[C@H](NC(=O)c1ccc(OC/C=C(\C)CC/C=C(\C)CCC=C(C)C)cc1-c1ccccc1C)C(=O)O [Example 547] | – | – |
| – | CSCC[C@H](NC(=O)c1ccc(CN(Cc2ccccc2)Cc2nccs2)cc1-c1ccccc1C)C(=O)O [Example 548, N-[4-N-benzyl-N-(thiazol-2-ylmethyl)aminomethyl-2-(2-methylphenyl)benzoyl]methionine] | – | inhibition at 0.1 µM (at 1 × 10^-7 M): 86% |
| – | CSCC[C@H](NC(=O)c1ccc(CN(Cc2ccccc2)Cc2cncs2)cc1-c1ccccc1C)C(=O)O [Example 549, N-[4-N-benzyl-N-(thiazol-5-ylmethyl)aminomethyl-2-(2-methylphenyl)benzoyl]methionine] | – | inhibition at 0.1 µM (at 1 × 10^-7 M): 98% |
| – | CSCC[C@H](NC(=O)c1ccc(CSc2ccc3ccccc3c2)cc1-c1ccccc1C)C(=O)O [Example 551] | 93% | – |
| 92% | CSCC[C@H](NC(=O)c1ccc(OCCC23CC4CC(CC(C4)C2)C3)cc1-c1ccccc1C)C(=O)O [Example 553] | – | – |
| 85% | CSCC[C@H](NC(=O)c1ccc(CS(=O)(=O)Cc2ccccc2)cc1-c1ccccc1C)C(=O)O [Example 555] | – | – |
| – | CSCC[C@H](NC(=O)c1ccc(CSCC2CCCCC2)cc1-c1ccccc1C)C(=O)[O-].[Li+] [Example 559] | 96% | – |
| 91% | CSCC[C@H](NC(=O)c1ccc(OC/C=C/c2ccccc2)cc1-c1ccccc1C)C(=O)O [Example 560] | – | – |
| 91% | CSCC[C@H](NC(=O)c1ccc(OCCOc2ccccc2)cc1-c1ccccc1C)C(=O)O [Example 561] | – | – |
| – | CSCC[C@H](NC(=O)c1ccc(CSCCc2ccccc2)cc1-c1ccccc1C)C(=O)[O-].[Li+] [Example 562] | 95% | – |
| 98% | CSCC[C@H](NC(=O)c1ccc(OCCCC2CCCCC2)cc1-c1ccccc1C)C(=O)O [Example 564] | – | – |
| 98% | CSCC[C@H](NC(=O)c1ccc(OCCCOc2ccccc2)cc1-c1ccccc1C)C(=O)O [Example 566] | – | – |
| 93% | CSCC[C@H](NC(=O)c1ccc(OCCCCOc2ccccc2)cc1-c1ccccc1C)C(=O)O [Example 568] | – | – |
| – | CSCC[C@H](NC(=O)c1ccc(COCc2ccccc2)cc1-c1ccccc1C)C(=O)[O-].[Li+] [Example 571] | 88% | – |

| % inhibition of farnesyltransferase (at 1 × 10^-6 M) | SMILES | % inhibition of farnesyltransferase (at 1 × 10^-7 M) | other results |
| --- | --- | --- | --- |
| – | CSCC[C@H](NC(=O)c1ccc(COc2ccc3ccccc3c2)cc1-c1ccccc1C)C(=O)O [Example 573] | 72% | – |
| – | CSCC[C@H](NC(=O)c1ccc(COc2cccc3ccccc23)cc1-c1ccccc1C)C(=O)O [Example 574] | 81% | – |
| 70% | CSCC[C@H](NC(=O)c1ccc(COCc2ccccc2)cc1-c1ccccc1)C(=O)O [Example 575] | – | – |
| 88% | Cc1ccccc1-c1cc(COCc2ccccc2)ccc1C(=O)N[C@@H](CCS(C)(=O)=O)C(=O)O [Example 576] | – | – |
| – | CSCC[C@H](NC(=O)c1ccc(COCc2cccc(C)c2)cc1-c1ccccc1C)C(=O)[O-].[Li+] [Example 578] | 90% | – |
| – | CSCC[C@H](NC(=O)c1ccc(COCc2ccc(C)cc2)cc1-c1ccccc1C)C(=O)[O-].[Li+] [Example 579] | 92% | – |
| – | CSCC[C@H](NC(=O)c1ccc(COCc2ccccc2)cc1-c1ccccc1C)C(=O)NS(=O)(=O)c1ccccc1 [Example 580] | 90% | – |
| 99% | CSCC[C@H](NC(=O)c1ccc(COCc2ccccc2)cc1-c1ccccc1C)C(=O)NS(=O)(=O)c1ccc(C)cc1 [Example 582] | – | – |
| – | CSCC[C@H](NC(=O)c1ccc(COCc2cccc3ccccc23)cc1-c1ccccc1C)C(=O)[O-].[Li+] [Example 584] | 96% | – |
| – | CSCC[C@H](NC(=O)c1ccc(COCC2CCCCC2)cc1-c1ccccc1C)C(=O)[O-].[Li+] [Example 585] | 96% | – |
| – | CSCC[C@H](NC(=O)c1ccc(CSCc2ccccc2)cc1-c1ccccc1C)C(=O)NS(=O)(=O)c1ccc(C)cc1 [Example 586] | – | % inhibition of farnesyltransferase (at 1 × 10^-8 M): 90% |
| – | CSCC[C@H](NC(=O)c1ccc(COCCc2ccccc2Cl)cc1-c1ccccc1C)C(=O)[O-].[Li+] [Example 588] | – | % inhibition of farnesyltransferase (at 1 × 10^-8 M): 68% |
| – | COc1ccccc1CCOCc1ccc(C(=O)N[C@@H](CCSC)C(=O)O)c(-c2ccccc2C)c1 [Example 589] | 91% | – |
| – | CSCC[C@H](NC(=O)c1ccc(COCCc2ccc(Cl)cc2)cc1-c1ccccc1C)C(=O)[O-].[Li+] [Example 590] | 95% | – |
| – | CSCC[C@H](NC(=O)c1ccc(COCCc2ccc(Cl)cc2Cl)cc1-c1ccccc1C)C(=O)[O-].[Li+] [Example 591] | – | % inhibition of farnesyltransferase (at 1 × 10^-8 M): 82% |
| – | CSCC[C@H](NC(=O)c1ccc(COCCc2cccc3ccccc23)cc1-c1ccccc1C)C(=O)[O-].[Li+] [Example 592] | 93% | – |
| – | CSCC[C@H](NC(=O)c1ccc(COCCc2ccc3ccccc3c2)cc1-c1ccccc1C)C(=O)[O-].[Li+] [Example 593] | 86% | – |
| – | CSCC[C@H](NC(=O)c1ccc(COCCC2CCCCC2)cc1-c1ccccc1C)C(=O)[O-].[Li+] [Example 594] | 95% | – |
| – | CSCC[C@@H](C(=O)[O-])N(C)C(=O)c1ccc(COCCCC2CCCCC2)cc1-c1ccccc1C.[Li+] [Example 597] | 75% | – |
| – | CSCC[C@H](NC(=O)c1ccc(COCCCC23CC4CC(CC(C4)C2)C3)cc1-c1ccccc1C)C(=O)[O-].[Li+] [Example 599] | – | % inhibition of farnesyltransferase (at 1 × 10^-8 M): 86% |
| – | CSCC[C@H](NC(=O)c1ccc(COCCCCC2CCCCC2)cc1-c1ccccc1C)C(=O)O [Example 600] | 93% | – |
| – | CSCC[C@H](NC(=O)c1ccc(COCCCCc2ccccc2)cc1-c1ccccc1C)C(=O)O [Example 601] | 92% | – |
| – | CSCC[C@H](NC(=O)c1ccc(CN[C@@H](CO)C2CCCCC2)cc1-c1ccccc1C)C(=O)O [Example 604, N-[4-(2-cyclohexylethan-1-ol-2-ylaminomethyl)-2-(2-methylphenyl)benzoyl]methionine Lithium Salt] | – | inhibition at 0.1 µM (at 1 × 10^-7 M): 86% |

| SMILES | % inhibition of farnesyltransferase (at 1 × 10^-6 M) | % inhibition of farnesyltransferase (at 1 × 10^-7 M) | other results |
| --- | --- | --- | --- |
| CSCC[C@H](NC(=O)c1ccc(CSC2CCCCC2)cc1-c1ccccc1C)C(=O)[O-].[Li+] [Example 550] | 96% | – | – |
| CSCC[C@H](NC(=O)c1ccc(OCCC2CCCCC2)cc1-c1ccccc1C)C(=O)[O-].[Li+] [Example 552] | 88% | – | – |
| CSCC[C@H](NC(=O)c1ccc(CSCc2ccccc2)cc1-c1ccccc1C)C(=O)[O-].[Li+] [Example 554] | 96% | – | – |
| CSCC[C@H](NC(=O)c1ccc(CSCc2ccc(C)cc2)cc1-c1ccccc1C)C(=O)[O-].[Li+] [Example 556] | 99% | – | – |
| CSCC[C@H](NC(=O)c1ccc(CSCc2ccccc2C)cc1-c1ccccc1C)C(=O)[O-].[Li+] [Example 557] | 93% | – | – |
| CSCC[C@H](NC(=O)c1ccc(OCCOC2CCCCC2)cc1-c1ccccc1C)C(=O)[O-].[Li+] [Example 565] | 94% | – | – |
| CSCC[C@H](NC(=O)c1ccc(CC(Cc2ccccc2)c2ccccc2)cc1-c1ccccc1C)C(=O)[O-].[Li+] (stereo partly drawn) [Example 572] | 91% | – | – |
| CSCC[C@H](NC(=O)c1ccc(COCc2ccccc2C)cc1-c1ccccc1C)C(=O)[O-].[Li+] [Example 577] | 94% | – | – |
| CSCC[C@H](NC(=O)c1ccc(COCc2ccc3ccccc3c2)cc1-c1ccccc1C)C(=O)[O-].[Li+] [Example 583] | 98% | – | – |
| CSCC[C@H](NC(=O)c1ccc(COCCc2ccccc2)cc1-c1ccccc1C)C(=O)[O-].[Li+] [Example 587] | 97% | – | – |
| CSCC[C@H](NC(=O)c1ccc(COCCCc2ccccc2)cc1-c1ccccc1C)C(=O)[O-].[Li+] [Example 595] | 97% | – | – |

— patent US6310095A, “Inhibitors of protein isoprenyl transferases” (University of Pittsburgh, priority 1998, dated 2001)
